According to US20030118553A1, “Vector constructs for gene-therapy mediated radionuclide therapy of undifferentiated and medullary thyroid carcinomas and non-thyroidal tumours and metastases mediated thereof” (priority 2000, published 2003):
Where two headings read alike, the source gives them in different places.

Columns and labels:
[1] = test system: anaplastic thyroid cells transfected with NIS cDNA; conditions: NIS-transfected tumor cells implanted into rats; cited from earlier work
[2] = test system: tumor cells of a thyroid carcinoma cell line (K1) transfected with hNIS
Procedure: After a tumor growth for 3 weeks scintigraphic pictures were taken ventrally by means of scintiscanning (gamma camera ZLC370, Siemens) 3 and 24 h following the injection of 2 MBq I-123, 10 MBq Tc-99m-pertechnetate and 0.4 MBq At-211 (RVL=right-ventral-left).
The cDNAs of the therapeutic genes are amplified from human thyreocyte mRNA after reverse transcription by subsequent PCR with gene-specific primers, and the fragments thus obtained are subcloned in a cloning vector (e.g., pCRblunt, Invitrogen) in E. coli (K12 derivative). For this purpose, overlapping cDNA segments of the single genes are used, the fragments allowing the generation of full-length cDNAs due to their common restriction enzyme cleavage sites. The cDNAs are cloned into a vector for constitutive expression in mammalian cells (e.g., in pCIneo under control of the CMV promoter, Promega). The expression vectors with integrated cDNA (FIG. 7A, example) are used for transient transfection of different tumor cell lines (Fugen6, Roche) and for the generation of stably transfected cell lines by antibiotic selection (e.g., G418 for pCIneo). Radionuclide uptake measurements ([I-125], [At-211], [Tc-99m], [Re-188]) with cell cultures (FIGS. 5 and 6) are performed according to the method of Weiss et al. 1984. To establish an animal model stably transfected tumor cell lines and the corresponding control cells, respectively, are subcutaneously injected into nude NMRI mice (nu/nu). After tumor growth in the course of 3-4 weeks and application of different radionuclides (i. a., [I-123], [At-211], [Tc-99m]) sequential scintiscans are taken with a gamma camera and organ distribution over region of interest (ROI) analyses determined (FIG. 4).

[3] = test system: stably transfected tumor cell lines (K1-NIS, SW480-NIS); experiment: At-211 transport in vitro: Na+ dependency and perchlorate inhibition; assay type: cell-based
From the text: FIG. 6A depicts the dependency upon Na^+ of the At-211 transport in vitro in stably transfected tumor cell lines (K1-NIS, SW480-NIS), wherein NaCl has been iso-osmotically replaced by choline chloride.

[4] = test system: tumor cell lines stably transfected with the NIS gene (K1, B-CPAP, 8505-C, SW480, DBTRG); experiment: In vitro radionuclide uptake in tumor cell lines stably transfected with the NIS gene; assay type: cell-based; conditions: for radionuclide uptake in control cells: corresponding control cells, not NIS-transfected; for radionuclide uptake in tumor cell lines transfected with NIS: stably transfected K1, B-CPAP, 8505-C, SW480, DBTRG
From the text: FIG. 5A depicts in vitro results of the radionuclide uptake of I-125, Tc-99m-pertechnetate, and At-211 in tumor cell lines stably transfected with the NIS gene as compared to the corresponding control cells: K1 papillary thyroid carcinoma ECACC #92030501, B-CPAP papillary thyroid carcinoma DSMZ #ACC273, 8505-C anaplastic thyroid carcinoma DSMZ #ACC219, SW480 colon carcinoma DSMZ #ACC313, DBTRG glioblastoma DSMZ #ACC359.

[5] = test system: transiently transfected tumor cell lines; experiment: I-125 uptake in transiently NIS-transfected tumor cell lines; assay type: cell-based; conditions: also follicular thyroid carcinoma, HepG2, LN-Cap, A498, SK-Mel30, CCF-STTG1, TT
From the text: In FIG. 5B the uptake of I-125 is additionally shown depending on a perchlorate blockage in transiently transfected tumor cell lines. […] The differences in the iodide uptake rates in different cell lines transfected with NIS are caused by the variable transfection efficiency of the distinct cell lines with the method used.

[6] = scintigraphically, K1-NIS tumor, NMRI nude mouse, compared to muscle tissue
[7] = scintiscans 3 and 24 h after injection, K1-wt control tumor not shown

| Structure (SMILES) | higher uptake in the NIS tumor as compared to muscle tissue [2, 6] | enrichment of the tracer in the tumor transfected with NIS [2, 7] | radionuclide uptake in control cells [4] | radionuclide uptake in tumor cell lines transfected with NIS [4] | other results |
| --- | --- | --- | --- | --- | --- |
| [131IH] [I-131] |  |  |  |  | maximum level after [1]: 90 min |
| [123IH] [I-123] | 60 fold | significant enrichment |  |  |  |
| [O-][Cl+3]([O-])([O-])O [perchlorate] |  |  |  |  | inhibition of the astate transport ([3]; small perchlorate concentrations): clear inhibition |
| [At] [At-211] |  |  | no uptake | highly significant uptake | dependency upon Na+ of the transport ([3]; NaCl iso-osmotically replaced by choline chloride, K1-NIS, SW480-NIS): clear-cut dependency upon Na^+; enrichment of the tracer in the tumor transfected with NIS ([2]; mouse, in vivo): significant enrichment; higher uptake in the NIS tumor as compared to muscle tissue ([2]; mouse, in vivo): 10 fold |
| [125IH] [I-125] |  |  | no uptake | highly significant uptake | iodide uptake in transiently transfected tumor cell lines [5]: significant iodide uptake |
| [O]=[99Tc](=[O])(=[O])[O-] [Tc-99m-pertechnetate] | 15 fold | significant enrichment | no uptake | highly significant uptake |  |
